According to US7271171B2, “Adenosine A3 receptor modulators” (King Pharmaceuticals Research and Development, Inc., priority 1998, dated 2007):
Read-outs that look alike come from different tables or passages of the source.

How the values were obtained:
[1] = molecular target: T1, human recombinant A1 adenosine receptor (Homo sapiens, UniProt P30542); experiment: Human cloned A1 receptor binding, [3H]-DPCPX, CHO cells; conditions: read-out: hA1 (Ki)
T1 construct: expressed in transfected cells; host or cells: CHO
T1 sequence (P30542 1-326): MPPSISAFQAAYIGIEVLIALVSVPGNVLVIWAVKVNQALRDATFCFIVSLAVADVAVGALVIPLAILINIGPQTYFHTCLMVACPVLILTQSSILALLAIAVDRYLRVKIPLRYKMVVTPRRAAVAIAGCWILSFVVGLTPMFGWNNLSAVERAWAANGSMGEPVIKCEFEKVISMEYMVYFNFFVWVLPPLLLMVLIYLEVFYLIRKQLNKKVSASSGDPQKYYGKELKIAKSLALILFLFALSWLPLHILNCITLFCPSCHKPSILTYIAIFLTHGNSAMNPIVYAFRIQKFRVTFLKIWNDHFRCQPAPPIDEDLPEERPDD
Protocol: (§1) The expression of the human A1, A2A, A2B and A3 receptors in CHO cells has been previously described (Klotz et al., 1998). The cells are grown adherently and maintained in Dulbecco's modified Eagle's medium with nutrient mixture F12 without nucleosides at 37 ° C. in 5% CO2/95% air. Cells are split two or three times weekly and then the culture medium is removed for membrane preparations. The cells are washed with phosphate-buffered saline and scraped off flasks in ice cold hypotonic buffer (5 mM Tris HCl, 2 mM EDTA, pH 7.4). The cell suspension is homogenized with Polytron and the homogenate is centrifuged for 30 min. at 48,000 g. The membrane pellet is re-suspended in 50 mM Tris HCl buffer at pH 7.4 for A1 adenosine receptors, in 50 mM Tris HCl, 10 mM MgCl2 at pH 7.4 for A2A adenosine receptors, in 50 mM Tris HCl, 10 mM MgCl2, 1 mM EDTA at pH 7.4 for A3 adenosine receptors and are utilized for binding and adenylate cyclase assays.
Binding of [^3H]-DPCPX to CHO cells transfected with the human recombinant A1 adenosine receptor is performed according to the method previously described by Klotz and coworkers (Klotz, K. N.; Cristalli, G.; Grifantini, M.; Vittori, S.; Lohse, M. J., “Photoaffinity labeling of A1 adenosine receptors,” J. Biol. Chem., 260, 14659-14664, 1985).
(§2) Displacement experiments are performed for 120 min. at 25° C. in 0.20 mL of buffer containing 1 nM [^3H]-DPCPX, 20 μL of diluted membranes (50 μg of protein/assay) and at least 6-8 different concentrations of examined compounds. Non-specific binding is determined in the presence of 10 μM of CHA and this is always 10% of the total binding. Binding of [^3H]-SCH58261 to CHO cells transfected with the human recombinant A2A adenosine receptors (50 μg of protein/assay) was performed according to Varani et al. (Varani, K; Cacciari, B.; Baraldi, P. G.; Dionisotti, S.; Ongini, E.; Borea, P. A., “Binding affinity of adenosine receptor agonists and antagonists at human cloned […] adenosine receptors,” Life Sci., 63, 81-87, 1998). In competition studies, at least 6-8 different concentrations of compounds are used and non-specific binding is determined in the presence of 50 μM NECA for an incubation time of 60 min. at 25° C.

[2] = molecular target: T2, human recombinant A2A adenosine receptors (Homo sapiens, UniProt P29274); experiment: Human cloned A2A receptor binding, [3H]-SCH58261, CHO cells; conditions: read-out: hA2A (Ki)
T2 construct: expressed in transfected cells; host or cells: CHO
Protocol: as §1, §2

[3] = molecular target: T3, human recombinant A2B adenosine receptors (Homo sapiens, UniProt P29275); experiment: Human cloned A2B receptor binding, [3H]-DPCPX, HEK-293 cells; conditions: read-out: hA2B (Ki)
T3 construct: host or cells: HEK-293
T3 sequence (P29275 1-332): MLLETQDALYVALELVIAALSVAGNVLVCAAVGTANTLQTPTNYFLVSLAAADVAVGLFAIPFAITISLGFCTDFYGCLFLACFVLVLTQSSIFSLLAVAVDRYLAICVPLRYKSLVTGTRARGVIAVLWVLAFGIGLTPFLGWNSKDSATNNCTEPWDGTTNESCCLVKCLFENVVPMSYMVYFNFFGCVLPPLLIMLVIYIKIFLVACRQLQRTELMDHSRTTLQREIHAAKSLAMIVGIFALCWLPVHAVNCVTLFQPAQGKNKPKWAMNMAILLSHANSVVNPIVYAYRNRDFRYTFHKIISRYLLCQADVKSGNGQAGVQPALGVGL
Protocol: Binding of [^3H]-DPCPX to HEK-293 cells (Receptor Biology, Inc., Beltsville, Md.) transfected with the human recombinant A2B adenosine receptors is performed essentially to the method described by Varani and coworkers (Mol. Pharmacol.). In particular, assays are carried out for 60 min. at 25° C. in 0.1 mL of 50 mM Tris HCl Buffer, 10 mM MgCl2, 1 mM EDTA, 0.1 mM benzamidine pH 7.4, 2 IU/ml adenosine deaminase containing 40 nM [^3H]-DPCPX, diluted membranes (20 µg of protein/assay) and at least 6-8 different concentration of tested compounds. Non-specific binding is determined in the presence of 100 μM of NECA and is always 30% of the total binding.

adenosine A3 receptor = molecular target: T4, adenosine A3 receptor (Homo sapiens, UniProt P0DMS8); experiment: Adenylate cyclase assay: block of agonist-induced inhibition of cAMP production; type: biochemical; conditions: FIG. 2, comparison in words
T4 construct: expressed in transfected cells; host or cells: CHO
T4 sequence (P0DMS8 1-318): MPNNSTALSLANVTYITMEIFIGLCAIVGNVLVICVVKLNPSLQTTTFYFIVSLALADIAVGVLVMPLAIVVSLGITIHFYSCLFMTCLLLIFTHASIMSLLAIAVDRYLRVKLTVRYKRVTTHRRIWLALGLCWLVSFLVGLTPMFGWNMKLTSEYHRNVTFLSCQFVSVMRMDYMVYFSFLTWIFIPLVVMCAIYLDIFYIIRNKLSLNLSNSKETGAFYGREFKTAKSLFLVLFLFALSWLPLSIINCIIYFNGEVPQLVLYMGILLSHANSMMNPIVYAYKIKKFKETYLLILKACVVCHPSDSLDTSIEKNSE
Protocol: as §1
Membrane preparation is suspended in 0.5 mL of incubation mixture (50 mM Tris HCl, MgCl2 10 mM, EDTA, 1 mM, pH 7.4) containing GTP 5 µM, 0.5 mM 4-(3-buthoxy-4-methoxybenzyl)-2-imidazolidinone (Ro 20-1274) as phosphodiesterase inhibitor, 2.0 IU/mL adenosine deaminase and pre-incubated for 10 min. in a shaking bath at 37° C. […]

Solubility in water = type: physicochemical
rA1 adenosine receptor [4] = molecular target: T5, rA1 adenosine receptor (Rattus norvegicus, UniProt P25099); conditions: values taken from Kim et al., J. Med. Chem. 1996; cited from earlier work
T5 construct: membranes of rat brain (150-200 μg- of protein/assay); from tissue; host or cells: whole brain of male Wistar rats
T5 sequence (P25099 1-326): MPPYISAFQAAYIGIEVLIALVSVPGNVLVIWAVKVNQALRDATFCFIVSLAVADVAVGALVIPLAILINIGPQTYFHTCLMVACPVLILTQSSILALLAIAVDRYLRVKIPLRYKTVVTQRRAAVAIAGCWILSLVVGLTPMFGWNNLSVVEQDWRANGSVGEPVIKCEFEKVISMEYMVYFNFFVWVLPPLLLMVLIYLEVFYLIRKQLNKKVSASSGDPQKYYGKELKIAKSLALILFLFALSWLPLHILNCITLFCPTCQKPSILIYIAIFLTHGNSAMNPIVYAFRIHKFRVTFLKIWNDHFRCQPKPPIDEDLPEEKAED

rA2A adenosine receptor [5] = molecular target: T6, rA2A adenosine receptor (Rattus norvegicus, UniProt P30543); conditions: values taken from Kim et al., J. Med. Chem. 1996; cited from earlier work
T6 construct: membranes of rat striatum (80-100 μmg of protein/assay); from tissue; host or cells: striatum of male Wistar rats

NB4 cell membranes = experiment: [125I]-ABMECA binding on tumor cell line membranes; conditions: NB4, 0.5 nM radioligand
Protocol: (§3) A series of binding experiments were performed on various tumor cell lines, using 0.5 nM [^125I]-ABMECA, with unspecific binding determined in the presence of 50 μM R-PIA or 200 μM NECA, on cell membranes of the cell lines. Specific binding was determined by substracting unspecific binding from total binding. The cell lines were the HL 60, NB4, SKN-MC, SKN-Be2C, SKN-SH and JURKAT cell lines.

SKN-Be2C cell membranes = experiment: [125I]-ABMECA binding on tumor cell line membranes; conditions: 0.5 nM radioligand
Protocol: as §3

SKN-MC cell membranes = experiment: [125I]-ABMECA binding on tumor cell line membranes; conditions: 0.5 nM radioligand
Protocol: as §3

SKN-SH cell membranes = experiment: [125I]-ABMECA binding on tumor cell line membranes; conditions: 0.5 nM radioligand
Protocol: as §3

HL 60 cell membranes = experiment: [125I]-ABMECA binding on tumor cell line membranes; parameters: species or system human; conditions: HL 60, 0.5 nM radioligand
Protocol: as §3

JURKAT cell membranes = experiment: [125I]-ABMECA binding on tumor cell line membranes; parameters: species or system human; conditions: 0.5 nM radioligand
Protocol: as §3

[6] = molecular target: T7, human A3 receptors expressed in HEK 293 cells (Homo sapiens, UniProt P0DMS8); conditions: saturation curve, FIG. 1, n=3
T7 sequence (P0DMS8 1-318): T4 sequence (P0DMS8 1-318)

[7] = molecular target: T8, A3 receptor in Jurkat cell membranes (Homo sapiens, UniProt P0DMS8)
T8 sequence (P0DMS8 1-318): T4 sequence (P0DMS8 1-318)

rA1 adenosine receptor [8] = molecular target: T5, rA1 adenosine receptor; experiment: Rat A1 adenosine receptor binding assay, [3H]CHA displacement, rat brain membranes
Protocol: (§4) Male Wistar rats (200-250 g) were decapitated and the whole brain and striatum dissected on ice. […] The homogenate was centrifuged at 48,000 for 10 min, and the pellet was resuspended in the same buffer containing 2 IU/mL adenosine deaminase. After 30 min incubation at 37° C., the membranes were centrifuged and pellets were stored at −80° C. Prior to freezing, an aliquot of homogenate was removed for protein assay with bovine albumin as reference standard. Binding assays were performed on rat brain and striatum membranes respectively, in the presence of 10 mM MgCl2 at 25° C.
(§5) Separation of bound from free radio ligand was performed by rapid filtration through Whatman GF/B filters which were washed three times with ice-cold buffer. Filter bound radioactivity was measured by scintillation spectrometry after addition of 5 mL of Aquassure. […] Ki values were calculated from the Cheng-Prusoff equation. All binding data were analyzed using the nonlinear regression curve-fitting computer program LIGAND.

rA2A adenosine receptor [9] = molecular target: T6, rA2A adenosine receptor; experiment: Rat A2A adenosine receptor binding assay, [3H]SCH58261 displacement, rat striatum membranes; conditions: rat striatum membranes, [3H]SCH58261; read-out: rA2A (Ki)
Protocol: as §4, §5

[10] = molecular target: T9, human recombinant A3 adenosine receptor (Homo sapiens, UniProt P0DMS8); experiment: Human cloned A3 adenosine receptor binding assay, [125I]AB-MECA, HEK-293 membranes; parameters: USA; host or cells: HEK-293
T9 sequence (P0DMS8 1-318): T4 sequence (P0DMS8 1-318)

T6 sequence (P30543 whole entry): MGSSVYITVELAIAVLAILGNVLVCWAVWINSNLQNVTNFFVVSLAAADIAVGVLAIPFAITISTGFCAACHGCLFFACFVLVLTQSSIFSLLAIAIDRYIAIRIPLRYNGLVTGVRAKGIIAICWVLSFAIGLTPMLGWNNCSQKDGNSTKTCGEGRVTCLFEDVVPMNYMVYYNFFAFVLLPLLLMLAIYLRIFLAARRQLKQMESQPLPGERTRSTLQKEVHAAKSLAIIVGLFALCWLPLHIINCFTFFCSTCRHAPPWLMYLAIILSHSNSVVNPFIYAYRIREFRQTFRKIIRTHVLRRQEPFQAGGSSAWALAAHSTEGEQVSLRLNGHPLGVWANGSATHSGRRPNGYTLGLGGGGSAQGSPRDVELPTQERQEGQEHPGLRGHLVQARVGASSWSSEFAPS
T2 sequence (P29274 whole entry): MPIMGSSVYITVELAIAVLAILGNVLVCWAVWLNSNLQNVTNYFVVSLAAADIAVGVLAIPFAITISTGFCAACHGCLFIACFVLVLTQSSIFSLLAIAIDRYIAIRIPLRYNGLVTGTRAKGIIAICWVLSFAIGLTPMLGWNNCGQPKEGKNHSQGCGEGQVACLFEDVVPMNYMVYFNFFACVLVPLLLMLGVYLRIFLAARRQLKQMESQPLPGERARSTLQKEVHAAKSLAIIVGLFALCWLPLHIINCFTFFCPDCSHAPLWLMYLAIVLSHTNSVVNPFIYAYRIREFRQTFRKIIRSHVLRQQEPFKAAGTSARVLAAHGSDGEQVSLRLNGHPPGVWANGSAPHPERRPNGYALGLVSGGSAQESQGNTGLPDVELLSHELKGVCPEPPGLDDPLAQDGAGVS

Cn1cc2c(nc(NC(=O)Nc3ccncc3)n3nc(-c4ccco4)nc23)n1 [Compound 106, N-[2-(2-furyl)-8-methyl-8H-pyrazolo[4,3-e][1,2,4]triazolo[1,5-c]pyrimidin-5-yl]-N′-pyridin-4-yl urea]
Ki [1]: 250 nM
Ki [2]: 60 nM
Ki [3]: 200 nM
potency of adenosine A3 antagonism (block of C1-IB-MECA induced inhibition of cAMP production) (adenosine A3 receptor): comparable

Cl.Cn1cc2c(nc(NC(=O)Nc3ccncc3)n3nc(-c4ccco4)nc23)n1 [Compound 107, N-[2-(2-furyl)-8-methyl-8H-pyrazolo[4,3-e][1,2,4]triazolo[1,5-c]pyrimidin-5-yl]-N′-pyridin-4-ylurea hydrochloride]
Ki ([1]; hydrochloride): 350 nM
Ki ([2]; hydrochloride): 100 nM
Ki ([3]; hydrochloride): 250 nM
potency of adenosine A3 antagonism (block of C1-IB-MECA induced inhibition of cAMP production) (adenosine A3 receptor): comparable
solubility in water (Solubility in water): soluble in water

O=C(Cc1ccccc1)Nc1nc2ccc(Cl)cc2c2nc(-c3ccco3)nn12 [MRS 1220]
Ki (rA1 adenosine receptor [4]): 305 ± 51 nM
Ki (rA2A adenosine receptor [5]): 52 ± 8.8 nM

CNC(=O)[C@H]1O[C@@H](n2cnc3c(NCc4ccc(N)c([125I])c4)ncnc32)[C@H](O)[C@@H]1O [[^125I]AB-MECA, [^125I]N^6-(4-amino-3-iodobenzyl)adenosine-5′N-methyluronamide]
Percent Specific Binding (NB4 cell membranes): 19%
Specific Binding (cpm) (NB4 cell membranes): 637 cpm
Percent Specific Binding (SKN-Be2C cell membranes): 24%
Specific Binding (cpm) (SKN-Be2C cell membranes): 1415 cpm
Percent Specific Binding (SKN-MC cell membranes): 17%
Specific Binding (cpm) (SKN-MC cell membranes): 1308 cpm
Percent Specific Binding (SKN-SH cell membranes): 3%
Specific Binding (cpm) (SKN-SH cell membranes): 91 cpm
Percent Specific Binding (HL 60 cell membranes): 20%
Specific Binding (cpm) (HL 60 cell membranes): 693 cpm
Percent Specific Binding (JURKAT cell membranes): 38%
Specific Binding (cpm) (JURKAT cell membranes): 2846 cpm
Bmax value [6]: 62±1 fmol/mg protein
Bmax (fmol/mg protein) / density of A3 receptor detected ([7]; FIG. 3): approximately 300 fmol/mg protein
Bmax (fmol/mg protein) / density of A3 receptor detected ([7]; FIG. 3, listed as [^125I]-ABMECA): 290 fmol/mg protein

CC(C)CCn1cc2c(nc(NC(=O)Cc3ccccc3)n3nc(-c4ccco4)nc23)n1 [Compound 58, 5-[(Benzyl)carbonyl]amino-8-isopentyl-2-(2-furyl)-pyrazolo[4,3.e]1,2,4-triazolo[1,5-c]pyrimidine]
Ki (rA1 adenosine receptor [8]): 373 nM
Ki (rA2A adenosine receptor [9]): 323 nM
melting point: 144 to 145 °C
Ki ([10]; HEK-293 membranes, [125I]AB-MECA, read-out: hA3 (Ki)): 81.1 nM
rA1/hA3 ([10]; selectivity ratio of Ki values): 4.6
rA2A/hA3 ([10]; selectivity ratio of Ki values): 4
